How the values were obtained:
H3122 CR pool cells = assay: FDA approved drug library growth inhibition selection, resistant cells; format: cell-based; details: 1 μM for 72 hours
H3122 parental cells = assay: FDA approved drug library growth inhibition selection, parental cells; format: cell-based; details: 1 μM for 72 hours
[1] = tested on: CR pool, CR #1, and CR #3 cell lines; assay: Cell proliferation after adding mevalonate pathway byproducts to cerivastatin-treated cells; format: cell-based; details: CR #1, CR #3, byproduct added after cerivastatin treatment
Excerpt: A statin-based drug is a suppressor of HMG-CoA reductase which is an enzyme converting 3-hydroxy-3-methylglutaryl coenzyme A (HMG-CoA) into mevalonic acid in the mevalonate pathway, and is known as a cholesterol-lowering agent, but is known to affect various intracellular signaling processes by suppressing the production of isoprenoids (Farnesyl pyrophosphate; […] GGPP) acting as a substrate for isoprenylation of a target protein among final byproducts of the mevalonate pathway in addition to cholesterol. Thus, after the present research team treated H3122 parental, CR pool, CR #1, and CR #3 cell lines with cerivastatin in order to see which one of the byproducts mediated by the mevalonate pathway is involved in acquiring resistance to an ALK inhibitor, the proliferation of cells was identified after mevalonate, GGPP, FPP, and squalene, which are byproducts of each step, were each added. The results are illustrated in FIG. 6A.

AKT and ERK = assay: Immunoblot of lower and bypass signaling pathway of ALK, ceritinib-resistant cell line; format: cell-based; details: cell line resistant to ceritinib
[2] = tested on: cell line that has acquired resistance to crizotinib; assay: Cell survival rate of cell line that has acquired resistance to crizotinib after ALK/EGFR inhibitor treatment; format: cell-based; details: crizotinib-resistant H3122 cell line
Method: Subsequently, studies on the mechanism of acquiring resistance to an ALK inhibitor in the Experimental Examples were carried out by representatively using CR pool, CR #1, and CR #3.

[3] = tested on: cell line resistant to the ALK inhibitor; assay: Evaluation of antitumor efficacy of statin-based drugs; details: cell line resistant to the ALK inhibitor versus parental
Excerpt: The results are illustrated in FIG. 4A.

YAP = assay: Western blot of YAP phosphorylation, crizotinib-resistant cell line; format: cell-based
Excerpt: YAP is accumulated in the nucleus to form a complex with TEAD when phosphorylation is suppressed, and is known as an oncogene which promotes the excessive proliferation of cancer cells and the metastasis of cancer by inducing the expression of a gene associated with cancer. In addition, YAP as a transcription factor has been reported to be involved even in the expression of EGFR and an EGFR ligand. Recently, it has been reported that the mevalonate pathway which is an important mechanism in cancer cell metabolism regulates YAP activity, and particularly, geranylgeranylation may directly affect YAP activity. […] The results are illustrated in FIG. 7. FIGS. 7A and 7B identify the expression pattern of YAP when GGPP and […] are treated, respectively through a western blot, and FIG. 7C illustrates whether YAP moves into the nucleus through an immunocytochemistry analysis.

[4] = tested on: p21, cleaved PARP, and cleaved caspase 3; assay: Western blot of p21 and apoptosis-related proteins, crizotinib-resistant cell lines; format: cell-based
[5] = tested on: p21, cleaved caspase 3, PARP, YAP; assay: Western blot of p21, cleaved caspase 3, PARP and YAP, ceritinib-resistant cell line; format: cell-based; details: cell line resistant to ceritinib
EGFR = assay: Western blot of EGFR activity after verteporfin; format: cell-based; details: cell line that has acquired resistance to an ALK inhibitor; pretreatment with verteporfin
Excerpt: The results are illustrated in FIG. 12.

vimentin = assay: Western blot of vimentin expression; format: cell-based; details: cell lines resistant to an ALK inhibitor
Excerpt: The results are illustrated in FIG. 13.

[6] = added to cerivastatin-treated cells

COc1cccc2c1C(=O)c1c(O)c3c(c(O)c1C2=O)C[C@@](O)(C(=O)CO)C[C@@H]3O[C@H]1C[C@H](N)[C@H](O)[C@H](C)O1 [doxorubicin]
growth of cells (H3122 CR pool cells): suppressed the growth
growth of cells (H3122 parental cells): suppressed the growth

CC(O)(CCO)CC(=O)O (stereo not shown) [mevalonate]
proliferation of cells suppressed by cerivastatin [1]: restored

Cc1cc(Nc2ncc(Cl)c(Nc3ccccc3S(=O)(=O)C(C)C)n2)c(OC(C)C)cc1C1CCNCC1 [ceritinib]
activity of AKT (AKT and ERK): not suppressed
activity of ERK (AKT and ERK): not suppressed
proliferation of the cell line that had acquired resistance (cell survival rate) [2]: not suppressed

CC(C)c1nc(N(C)S(C)(=O)=O)nc(-c2ccc(F)cc2)c1/C=C/[C@@H](O)C[C@@H](O)CC(=O)O [rosuvastatin]
antitumor efficacies [3]: specifically exhibited antitumor efficacies against a cell line resistant to the ALK inhibitor

CC(C)=CCC/C(C)=C/CC/C(C)=C/CC/C(C)=C/COP(=O)(O)OP(=O)(O)O [GGPP, Geranylgeranyl pyrophosphate]
phosphorylation of YAP (YAP; added together with cerivastatin): again reduced
expression of cleaved PARP increased by cerivastatin [4, 6]: again decreased
expression of cleaved caspase 3 increased by cerivastatin [4, 6]: again decreased
expression of p21 increased by cerivastatin [4, 6]: again decreased
proliferation of cells suppressed by cerivastatin [1]: restored

CC(C)c1c(C(=O)Nc2ccccc2)c(-c2ccccc2)c(-c2ccc(F)cc2)n1CC[C@@H](O)C[C@@H](O)CC(=O)O [atorvastatin]
antitumor efficacies [3]: specifically exhibited antitumor efficacies against a cell line resistant to the ALK inhibitor

CC(=O)O[C@@]12CO[C@@H]1C[C@H](O)[C@@]1(C)C(=O)[C@H](O)C3=C(C)[C@@H](OC(=O)[C@H](O)[C@@H](NC(=O)OC(C)(C)C)c4ccccc4)C[C@@](O)([C@@H](OC(=O)c4ccccc4)[C@H]21)C3(C)C [docetaxel]
growth of cells (H3122 CR pool cells): suppressed the growth
growth of cells (H3122 parental cells): suppressed the growth

CC(C)=CCC/C(C)=C/CC/C(C)=C/CC/C=C(\C)CC/C=C(\C)CCC=C(C)C [squalene]
proliferation of cells suppressed by cerivastatin [1]: did not have any effect

COC(=O)[C@H](CC(C)C)NC(=O)c1ccc(NC[C@@H](N)CS)cc1-c1cccc2ccccc12 [GGTI-298]
phosphorylation of YAP (YAP; western blot, agent alone): increasing
expression of PARP [5]: concentration-dependently induced
expression of p21 [5]: concentration-dependently induced
expression of cleaved PARP ([4]; western blot, agent alone): concentration dependently induced
expression of cleaved caspase 3 ([4]; western blot, agent alone): concentration dependently induced
expression of p21 ([4]; western blot, agent alone): concentration dependently induced

verteporfin
activity of EGFR (EGFR): concentration-dependently suppressed
expression of vimentin (vimentin): clearly decreased

CC(C)=CCC/C(C)=C/CC/C(C)=C/COP(=O)(O)OP(=O)(O)O [FPP, Farnesyl pyrophosphate]
proliferation of cells suppressed by cerivastatin [1]: did not have any effect

From patent US10688085B2, “Use of statin-based drug for treatment of EML4-ALK-positive non-small cell lung cancer progressing on ALK inhibitor” (University-Industry Foundation, Yonsei University, priority 2016, dated 2020)
